Measured values reported in US20240376163A1, “PEPTIDE FOR INHIBITING CALCINEURIN AND USE THEREOF” (Seoul National University R&DB Foundation, priority 2023, published 2024).

Tested on: Jurkat T cells
Test: mRNA sequencing of activated Jurkat T cells
Format: cell-based, human

## PEITVTPPTP [CABIN1-L-1-2]
P + I
  CRIM1 FPKM: 0.333 FPKM
  CRTAM FPKM: 9.51 FPKM
  CSF1 FPKM: 2.594 FPKM
  CSF2 FPKM: 0.314 FPKM
  CST7 FPKM: 3.175 FPKM
  CXCL8 FPKM: 3.327 FPKM
  CXCR3 FPKM: 1.803 FPKM
  DSTYK FPKM: 3.595 FPKM
  FBXO34 FPKM: 18.386 FPKM
  FMNL2 FPKM: 3.019 FPKM
  FOSL2 FPKM: 2.362 FPKM
  FOXO1 FPKM: 3.736 FPKM
  FXYD5 FPKM: 42.856 FPKM
  FYN FPKM: 15.512 FPKM
  GFOD1 FPKM: 6.312 FPKM
  GRK5 FPKM: 8.975 FPKM
  GTDC1 FPKM: 5.144 FPKM
  IL2 FPKM: 12.964 FPKM
  IL3 FPKM: 6.298 FPKM
  IL21R FPKM: 5.255 FPKM
  IL21R-AS1 FPKM: 3.991 FPKM
  IQCJ-SCHIP1 FPKM: 1.234 FPKM
  IRF4 FPKM: 2.092 FPKM
  IRF8 FPKM: 1.914 FPKM
  ISM1 FPKM: 3.737 FPKM
  JAK2 FPKM: 8.45 FPKM
  KCNK1 FPKM: 13.139 FPKM
  KCNK5 FPKM: 4.904 FPKM
  LAMP3 FPKM: 9.828 FPKM
  LAX1 FPKM: 7.578 FPKM
  LIF FPKM: 0.231 FPKM
  LOC729603 FPKM: 3.329 FPKM
  LRRC8B FPKM: 4.298 FPKM
  LTBP4 FPKM: 9.568 FPKM
  MAP2K3 FPKM: 43.237 FPKM
  MIR6775 FPKM: 21.57 FPKM
  MIR6821 FPKM: 25.116 FPKM
  MYO1D FPKM: 5.995 FPKM
  NDFIP1 FPKM: 24.432 FPKM
  NFATC1 FPKM: 3.916 FPKM
  NPDC1 FPKM: 5.64 FPKM
  NR4A2 FPKM: 0.356 FPKM
  NTRK1 FPKM: 1.657 FPKM
  PAM FPKM: 1.934 FPKM
  PDGFA FPKM: 8.169 FPKM
  PELI1 FPKM: 8.465 FPKM
  PHACTR2 FPKM: 2.791 FPKM
  PHEX FPKM: 0.786 FPKM
  PIM3 FPKM: 72.895 FPKM
  PKIA FPKM: 18.138 FPKM
  PLK3 FPKM: 7.036 FPKM
  PLS3 FPKM: 0.37 FPKM
  POU2AF1 FPKM: 2.971 FPKM
  PPIF FPKM: 106.533 FPKM
  PTPN6 FPKM: 20.806 FPKM
  PTPN22 FPKM: 5.119 FPKM
  RDH10 FPKM: 5.524 FPKM
  REL FPKM: 5.699 FPKM
  RGS16 FPKM: 5.595 FPKM
  SCHIP1 FPKM: 1.333 FPKM
  SERPINB2 FPKM: 14.103 FPKM
  SHC4 FPKM: 0.686 FPKM
  SLAMF1 FPKM: 0.275 FPKM
  SLC35E4 FPKM: 1.517 FPKM
  SORBS1 FPKM: 0.511 FPKM
  SPRY1 FPKM: 4.901 FPKM
  STAT5A FPKM: 3.055 FPKM
  TAGAP FPKM: 8.731 FPKM
  TBC1D4 FPKM: 13.191 FPKM
  TBC1D20 FPKM: 18.427 FPKM
  TDRD9 FPKM: 1.888 FPKM
  TIAM2 FPKM: 0.301 FPKM
  TM4SF1 FPKM: 0.907 FPKM
  TNFRSF4 FPKM: 11.916 FPKM
  TNFSF9 FPKM: 2.651 FPKM
  TNFSF14 FPKM: 4.255 FPKM
  TNS3 FPKM: 1.418 FPKM
  VAMP1 FPKM: 14.752 FPKM
  XCL1 FPKM: 1.144 FPKM
  XCL2 FPKM: 2.074 FPKM
  ZNF704 FPKM: 0.183 FPKM
  ZNF827 FPKM: 1.372 FPKM
P+I
  ABCB10 FPKM: 9.751 FPKM
  ACTG1 FPKM: 799.981 FPKM
  ADAM19 FPKM: 4.257 FPKM
  ADD3 FPKM: 9.536 FPKM
  ADORA2B FPKM: 6.969 FPKM
  AGO2 FPKM: 14.51 FPKM
  AIM1 FPKM: 27.486 FPKM
  APOBEC3A_B FPKM: 14.665 FPKM
  APOBEC3B FPKM: 59.895 FPKM
  APOBEC3C FPKM: 14.323 FPKM
  APOBEC3D FPKM: 8.981 FPKM
  APOL2 FPKM: 102.003 FPKM
  APOL6 FPKM: 46.762 FPKM
  AQP3 FPKM: 52.98 FPKM
  ARAP2 FPKM: 13.458 FPKM
  ARC FPKM: 10.186 FPKM
  ARHGAP23 FPKM: 1.985 FPKM
  ARHGEF6 FPKM: 27.254 FPKM
  ASAP1 FPKM: 9.052 FPKM
  ATG14 FPKM: 11.252 FPKM
  ATP2B4 FPKM: 10.46 FPKM
  ATXN1 FPKM: 2.083 FPKM
  BACH2 FPKM: 36.118 FPKM
  BAI2 FPKM: 1.079 FPKM
  BAIAP2-AS1 FPKM: 2.144 FPKM
  BATF3 FPKM: 45.085 FPKM
  BHLHE40 FPKM: 9.368 FPKM
  BTG1 FPKM: 23.454 FPKM
  C1QL1 FPKM: 0.756 FPKM
  C1orf233 FPKM: 0.674 FPKM
  C3 FPKM: 1.329 FPKM
  C9orf9 FPKM: 6.009 FPKM
  C10orf54 FPKM: 0.487 FPKM
  C16orf46 FPKM: 3.705 FPKM
  CASC15 FPKM: 2.572 FPKM
  CBX4 FPKM: 11.578 FPKM
  CBX6 FPKM: 65.604 FPKM
  CCDC64 FPKM: 11.039 FPKM
  CCDC71L FPKM: 16.319 FPKM
  CCL1 FPKM: 0.415 FPKM
  CCL3L1 FPKM: 0.079 FPKM
  CCL4 FPKM: 4.062 FPKM
  CCL4L1 FPKM: 0.328 FPKM
  CCL4L2 FPKM: 0.328 FPKM
  CCND2 FPKM: 0.99 FPKM
  CD1A FPKM: 4.51 FPKM
  CD1C FPKM: 2.59 FPKM
  CD1D FPKM: 3.093 FPKM
  CD27-AS1 FPKM: 4.613 FPKM
  CD27 FPKM: 3.4 FPKM
  CD55 FPKM: 12.082 FPKM
  CD69 FPKM: 121.846 FPKM
  CD83 FPKM: 41.173 FPKM
  CDCA7 FPKM: 21.851 FPKM
  CDT1 FPKM: 11.831 FPKM
  CFD FPKM: 1.22 FPKM
  CHI3L2 FPKM: 51.627 FPKM
  CHRNA9 FPKM: 2.572 FPKM
  CLEC2B FPKM: 54.119 FPKM
  CNR2 FPKM: 0.552 FPKM
  CORO2A FPKM: 1.623 FPKM
  CRIM1 FPKM: 0.333 FPKM
  CRTAM FPKM: 9.51 FPKM
  CSRNP1 FPKM: 23.093 FPKM
  CST7 FPKM: 3.175 FPKM
  CTDSPL FPKM: 1.836 FPKM
  CTTN FPKM: 15.629 FPKM
  CXCL3 FPKM: 7.007 FPKM
  CXCL9 FPKM: 7.221 FPKM
  CXCL10 FPKM: 6.288 FPKM
  CXCR3 FPKM: 1.803 FPKM
  CYB5RL FPKM: 1.449 FPKM
  DFNA5 FPKM: 9.395 FPKM
  DHFR FPKM: 6.668 FPKM
  DNAJB11 FPKM: 109.967 FPKM
  DNAJC1 FPKM: 13.844 FPKM
  DNPEP FPKM: 43.482 FPKM
  DOK2 FPKM: 27.542 FPKM
  DPY19L2P2 FPKM: 2.643 FPKM
  DPYSL2 FPKM: 9.177 FPKM
  DTX3L FPKM: 48.261 FPKM
  DUSP2 FPKM: 97.06 FPKM
  DUSP5 FPKM: 157.077 FPKM
  E2F1 FPKM: 8.062 FPKM
  E2F2 FPKM: 3.419 FPKM
  EIF2AK3 FPKM: 9.816 FPKM
  ENC1 FPKM: 9.268 FPKM
  ENHO FPKM: 1.223 FPKM
  ENPP1 FPKM: 51.27 FPKM
  EPAS1 FPKM: 4.197 FPKM
  EPHA3 FPKM: 2.536 FPKM
  ERO1LB FPKM: 4.345 FPKM
  ETV5 FPKM: 13.264 FPKM
  EVI2A FPKM: 10.047 FPKM
  FAM46C FPKM: 5.693 FPKM
  FAM111B FPKM: 4.22 FPKM
  FASLG FPKM: 1.715 FPKM
  FBXO34 FPKM: 18.386 FPKM
  FMNL2 FPKM: 3.019 FPKM
  FOS FPKM: 4.53 FPKM
  FOXO1 FPKM: 3.736 FPKM
  FST FPKM: 6.872 FPKM
  FURIN FPKM: 29.008 FPKM
  FYB FPKM: 10.258 FPKM
  GAMT FPKM: 11.98 FPKM
  GBP1 FPKM: 87.487 FPKM
  GBP2 FPKM: 38.881 FPKM
  GBP3 FPKM: 68.757 FPKM
  GBP4 FPKM: 9.209 FPKM
  GBP5 FPKM: 262.945 FPKM
  GDPD5 FPKM: 39.139 FPKM
  GEM FPKM: 2.963 FPKM
  GINS2 FPKM: 16.516 FPKM
  GLIPR2 FPKM: 11.773 FPKM
  GNAQ FPKM: 17.078 FPKM
  GNG2 FPKM: 17.754 FPKM
  GPR3 FPKM: 9.964 FPKM
